Legend:
Assay in all cases: two-electrode voltage clamp, Xenopus oocytes
Format in all cases: cell-based
AsegIR75q.1/AsegIR8a [1] = molecular target: T1, AsegIR75q.1/AsegIR8a (Agrotis segetum, UniProt Z9J2I4KL46); details: agonist, weak; co-expressed with AsegIR8a; -80 mV; pH 7.6; 0.1% DMSO; 100 μM
T1 construct: full-length cDNA in pCS2+, cRNA co-injected with AsegIR8a cRNA in Xenopus laevis oocytes; with Ionotropic receptor 8a
T1 sequence (Z9J2I4KL46 1-637): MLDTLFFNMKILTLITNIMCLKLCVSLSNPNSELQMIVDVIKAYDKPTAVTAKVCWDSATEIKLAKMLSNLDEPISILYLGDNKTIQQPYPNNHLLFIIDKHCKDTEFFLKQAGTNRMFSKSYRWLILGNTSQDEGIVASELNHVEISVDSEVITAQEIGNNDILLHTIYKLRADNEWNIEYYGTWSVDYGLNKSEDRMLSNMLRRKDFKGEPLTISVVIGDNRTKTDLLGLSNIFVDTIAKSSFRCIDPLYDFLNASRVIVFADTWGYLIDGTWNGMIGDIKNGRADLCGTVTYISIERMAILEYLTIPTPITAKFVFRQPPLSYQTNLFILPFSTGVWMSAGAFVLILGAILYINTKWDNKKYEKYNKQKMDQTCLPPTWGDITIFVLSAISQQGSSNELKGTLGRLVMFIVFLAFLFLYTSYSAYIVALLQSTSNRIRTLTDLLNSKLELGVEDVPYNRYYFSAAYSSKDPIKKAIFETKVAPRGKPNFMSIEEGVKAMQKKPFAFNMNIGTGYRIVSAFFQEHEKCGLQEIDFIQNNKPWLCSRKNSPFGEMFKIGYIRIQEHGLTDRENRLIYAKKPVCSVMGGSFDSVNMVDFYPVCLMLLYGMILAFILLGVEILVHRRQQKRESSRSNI

AsegIR75p.1/AsegIR8a = molecular target: T2, AsegIR75p.1/AsegIR8a (Agrotis segetum, UniProt Z9OWS8C5E7); details: agonist; co-expressed with AsegIR8a; -80 mV; pH 7.6; 0.1% DMSO; 100 μM and dose-response
T2 construct: full-length cDNA in pCS2+, cRNA co-injected with AsegIR8a cRNA in Xenopus laevis oocytes; with Ionotropic receptor 8a
T2 sequence (Z9OWS8C5E7 1-676): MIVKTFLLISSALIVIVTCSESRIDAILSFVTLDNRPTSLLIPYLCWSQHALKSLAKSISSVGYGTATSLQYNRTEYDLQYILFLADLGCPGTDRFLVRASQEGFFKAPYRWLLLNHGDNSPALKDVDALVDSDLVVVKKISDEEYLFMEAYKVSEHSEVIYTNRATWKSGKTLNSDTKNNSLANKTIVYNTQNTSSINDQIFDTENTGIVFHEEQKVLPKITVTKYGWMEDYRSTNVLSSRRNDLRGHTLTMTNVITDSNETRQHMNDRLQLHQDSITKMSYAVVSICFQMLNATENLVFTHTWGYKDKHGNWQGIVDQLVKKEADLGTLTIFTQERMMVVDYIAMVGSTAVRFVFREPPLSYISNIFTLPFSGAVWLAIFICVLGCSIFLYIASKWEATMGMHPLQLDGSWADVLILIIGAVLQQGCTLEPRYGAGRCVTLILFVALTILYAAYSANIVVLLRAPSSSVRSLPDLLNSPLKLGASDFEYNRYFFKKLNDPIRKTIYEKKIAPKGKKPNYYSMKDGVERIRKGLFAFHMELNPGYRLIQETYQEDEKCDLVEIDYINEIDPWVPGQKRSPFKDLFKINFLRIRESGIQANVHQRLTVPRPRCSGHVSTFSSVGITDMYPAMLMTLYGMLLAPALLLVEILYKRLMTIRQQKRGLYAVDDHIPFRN

AsegIR75q.1/AsegIR8a [2] = molecular target: T1, AsegIR75q.1/AsegIR8a; details: agonist; co-expressed with AsegIR8a; -80 mV; pH 7.6; 0.1% DMSO; dose-response

Row | Compound | two-electrode voltage clamp, Xenopus oocytes (AsegIR75q.1/AsegIR8a [1]) | two-electrode voltage clamp, Xenopus oocytes (AsegIR75p.1/AsegIR8a) | other results
1 | CCCCCCCC=O [octanal] | This receptor also responded slightly to heptanoic acid and octanal |  | 
2 | CCCCCC(=O)O [hexanoic acid] |  | The strongest response was elicited by hexanoic acid | 
3 | CC/C=C\CCO [(Z)-3-hexenol] |  | hexanoic acid, followed by (Z)-3-hexenol, (E)-2-hexenal, and hexanal | 
4 | CCCCCCC(=O)O [heptanoic acid] | This receptor also responded slightly to heptanoic acid and octanal |  | 
5 | CCCCCCCCC(=O)O [nonanoic acid] |  |  | threshold concentration (AsegIR75q.1/AsegIR8a [2]): 1 µM
